From patent US20240239787A1, “COMPOUNDS FOR USE IN THE TREATMENT OF CANCER” (Nanyang Technological University, priority 2021, published 2024)

How the values were obtained:
CK2α [1] = molecular target: T1, CK2α (Homo sapiens, UniProt P68400); assay: Immunofluorescence staining of CK2α degradation over time; assay type: cell-based; set-up: Hek293T, MCF-7, and U205 cells were chosen as they can express different levels of CK2α protein; endogenous in cells; host or cells: HEK293T, MCF-7, U2OS; conditions: 0.1 or 1 μM, prolonged time (up to 20 h); Hek293T, MCF-7, U205 cells
Procedure: After the synthesis of T44 and T120 in Examples 1 and 2, their properties for protein degradation were examined. Hek293T, MCF-7, and U205 cells were chosen as they can express different levels of CK2α protein.
[…] Upon washing with PBS buffer thrice, the protein degradation was examined by immunofluorescence staining.
Each group of cells with density of 5×10^4 cells in each well of 8-well ibidi-dishes was treated with T120 or T44 at different concentration (0.1 μM or 1 μM) and time (0 h, 6 h, 18 h or 30 h). After treatment, the cells were fixed with 4% paraformaldehyde for 15 min, permeabilized with 0.25% Triton™ X-100 for 10 min and blocked with 5% BSA for 1 h at room temperature. The cells were then labelled with CK2α Rabbit polyclonal Antibody (Cell signalling, #2656) in 1% BSA and incubated for 3 h at r.t. Subsequently, Alexa Fluor 488-Goat Anti-Rabbit IgG secondary antibody was stained for 30 min at r.t. The nucleus was stained with Hoechst 33342 for 30 min at r.t. The degradation of CK2α protein was visualized with Carl Zeiss LSM 800 microscopes. (Hoechst 33342: Ex=405 nm, Em=460/50 nm; Alexa Fluor 488: Ex=488 nm, Em=515/30 nm).

CK2α [2] = molecular target: T1, CK2α; assay: Concentration-dependent test for CK2α degradation (immunofluorescence / Western blot); assay type: cell-based; conditions: 24 h
Procedure: Based on the established method (From Merck), the lysates were loaded into the wells in a Mini-PROTEAN® TGX™ 4-20% Precast Gel and run for separation in 30 min under 200 V.
Cell lines including HEK293T and MCF-7 was incubated with varied concentrations of T44 or T120 for 24 h. After that, the protein level was evaluated by the above immunofluorescence staining protocol. Alternatively, the protein level was evaluated by Western blot analysis. Particularly, The lysates of each group of cells were collected and centrifuged at 12,000×g for 20 min at 4° C. Protein levels in supernatants were determined using Nanodrop and equalized to the same concentration and boiled for 10 min with SDS-PAGE sample loading buffer before being separated using SDS-PAGE and transferred to the PVDF membrane. The membrane was then blocked with 5% BSA-TBST blocking buffer overnight at 4° C. Subsequently, CK2α Rabbit polyclonal Antibody (Cell signalling, #2656) was incubated overnight at 4° C. in 1% BSA-TBST buffer. After series of washing, the goat-anti rabbit IGG (H&L) secondary antibody was added and incubated for 1 h in 1% BSA-TBST. All signals were visualized using […] (Image quant 800) system.

T1 sequence (P68400 whole entry): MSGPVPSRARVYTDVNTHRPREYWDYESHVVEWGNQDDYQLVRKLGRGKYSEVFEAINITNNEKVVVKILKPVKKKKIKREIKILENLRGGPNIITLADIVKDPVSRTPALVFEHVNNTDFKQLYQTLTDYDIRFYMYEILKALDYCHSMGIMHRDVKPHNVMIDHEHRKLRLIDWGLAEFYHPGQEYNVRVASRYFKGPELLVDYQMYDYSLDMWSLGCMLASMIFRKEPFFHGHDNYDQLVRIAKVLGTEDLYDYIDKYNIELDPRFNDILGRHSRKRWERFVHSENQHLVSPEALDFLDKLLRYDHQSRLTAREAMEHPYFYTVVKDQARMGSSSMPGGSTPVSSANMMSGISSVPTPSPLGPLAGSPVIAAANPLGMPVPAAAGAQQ

COc1cc(/C=N/n2c(SC)nnc2-c2ccc(OCCOCCOCCOCc3cn(CCOCC(=O)Nc4cccc5c4C(=O)N(C4CCC(=O)NC4=O)C5=O)nn3)cc2)c(Br)cc1O (stereo not drawn) [T44]
CK2α antibody fluorescence signal in cells after incubation (CK2α [1]): decreased fluorescence signals | CK2α degradation effect, concentration dependence (CK2α [2]; HEK293T and MCF-7 cells): cell-dependent | CK2α fluorescence change with different concentrations (CK2α [2]; MCF-7 cells): no obvious fluorescence change
